Assay results published in patent US11066444B2, “BMP-2-binding peptide amphiphile nanofibers” (Northwestern University, priority 2014, dated 2021).
Values joined by “and” are separate entries in the source; they are usually repeats but may differ in a detail not shown here. Identical values can stand only once. Residues, ends and D or L forms follow the SMILES beside them. *: point of attachment. Lauroyl = CCCCCCCCCCCC(=O)*

Tests used:
C2C12 cells [1] = test: Alkaline phosphatase (ALP) activity assay, BMP-2-induced osteoblast differentiation; format: cell-based; conditions: 10 μg/mL, without BMP-2, 4 days
Description: C2C12 pre-myoblasts were maintained and treated with BMP-2 as depicted in FIG. 5A. C2C12 cells were seeded at 2×10^4 cells/cm2 in 24-well plates in growth media (DMEM with 10% heat-inactivated FBS and 100 U/mL penicillin/streptomycin, P/S) 1 day before treatment. On the following day (Day 0), growth media was replaced with 900 μL maintenance media (growth media with 2.5% FBS) and 100 μL treatment media containing BMP-2 with heparin or PAs. Preparation of the treatment media was as follows: 2.5 μL of BMP-2 stock ([…]) was mixed with 5 μL of heparin or PA stock solutions (0.02, 0.2, or 2 mg/mL), incubated for 5 min on ice, then mixed with DMEM (100 U/mL P/S) to a final volume of 100 μL, followed by 5 min incubation on ice. For treatments with BMP-2 only, the treatment media was prepared according to the method described except without heparin or PAs. […]
ALP activity from C2C12 cell layer was measured using QUANTI-Blue ALP substrate (InvivoGen, San Diego, Calif.). […] The plate was incubated at 37° C. for 18 h and absorbance was measured at 630 nm on SpectraMax M5 Microplate Reader (Molecular Devices, Sunnyvale, Calif.). […] The absorbance values from QUANTI-Blue ALP assay was normalized by the amount of dsDNA in each sample, and the resulting values from heparin and PA treatments were normalized to control (BMP-2 only) to represent the relative fold increase (n=3, in triplicate experiments).

C2C12 cells [2] = test: Real-time PCR of osteogenic genes (Runx2, Osx, Ocn); format: cell-based; conditions: 50 ng/mL BMP-2, 10 μg/mL, 2 days
Description: C2C12 cells were treated with 50 ng/ml BMP-2 in the presence of 10 μg/mL heparin or PAs until Day 2, and the osteogenic gene expression levels were determined by real-time PCR as described by Zhao et al. (n=4, in triplicate experiments). Briefly, total RNAs were isolated from cells using TRIzol (Invitrogen) and reverse-transcribed using iScript Reverse Transcription Supermix (Bio-Rad, Des Plaines, Ill.). PCR amplification was analyzed with iQ5 Real-Time PCR Detection System (Bio-Rad) using iQ SYBR Green Supermix (Bio-Rad) and the following primers: Runx2 types II & III (Runx2), 5′-[…]-3′(SEQ ID NO:5) and 5′-CCAAAAGAAGCTTTGCTG-3′ (SEQ ID NO:6); Osterix (Osx), 5′-[…]-3′(SEQ ID NO:7) and 5′-[…]-3′(SEQ ID NO:8); Osteocalcin (Ocn), 5′-[…]-3′(SEQ ID NO:9) and 5′-[…]-3′(SEQ ID NO:10); and Glyceraldehyde-3-phosphate dehydrogenase (GAPDH), 5′-[…]-3′(SEQ ID NO:11) and 5′-[…]-3′(SEQ ID NO:12) (IDT, Coralville, Iowa). For PCR amplification, cDNA was denatured at 94° C. for 5 min, then underwent 40 repeated cycles at 94° C. for 45 s, annealing at 55° C. for 1 min, and extension at 68° C. for 1 min, followed by 79 repeated cycles at 55° C. for 30 s for generation of a melting curve. Expression values of Runx2 II, Osx, and Ocn were normalized to the respective GAPDH levels, and all treatments were normalized to control (BMP-2 only) treatment in order to represent relative fold increase.

C2C12 cells [3] = test: Cell cytotoxicity assay (LDH release, live/dead); format: cell-based; conditions: 10 μg/mL, 5 h, without BMP-2
Description: C2C12 cells were treated with 10 μg/mL heparin or PAs for 5 h (Day 0), and a fraction of the media was collected to measure the presence of lactate dehydrogenase (LDH), a cytosolic enzyme only released upon cell lysis, using CytoTox 96 Non-Radioactive Cytotoxicity Assay (Promega, Madison, Wis.) (n=6). In addition, the remaining cells were stained for viable and dead cells using LIVE/DEAD Viability/Cytoxocity Kit (Invitrogen, Grand Island, N.Y.).

C2C12 cells [4] = test: Alkaline phosphatase (ALP) stain, BMP-2-induced osteoblast differentiation; format: cell-based; conditions: 50 ng/mL BMP-2, PA or heparin 0.1-10 μg/mL, 3 days
Description: C2C12 pre-myoblasts were maintained and treated with BMP-2 as depicted in FIG. 5A. C2C12 cells were seeded at 2×10^4 cells/cm2 in 24-well plates in growth media (DMEM with 10% heat-inactivated FBS and 100 U/mL penicillin/streptomycin, P/S) 1 day before treatment. On the following day (Day 0), growth media was replaced with 900 μL maintenance media (growth media with 2.5% FBS) and 100 μL treatment media containing BMP-2 with heparin or PAs. Preparation of the treatment media was as follows: 2.5 μL of BMP-2 stock ([…]) was mixed with 5 μL of heparin or PA stock solutions (0.02, 0.2, or 2 mg/mL), incubated for 5 min on ice, then mixed with DMEM (100 U/mL P/S) to a final volume of 100 μL, followed by 5 min incubation on ice. For treatments with BMP-2 only, the treatment media was prepared according to the method described except without heparin or PAs. Final working concentrations were 50 ng/mL BMP-2 and a range of 0.1, 1, to 10 μg/mL heparin or PAs.
The presence of ALP was stained as a marker for osteoblast differentiation on day 3 by enzymatic labeling described by Mason and Woolston (herein incorporated by reference in its entirety). C2C12 cell layer was fixed with 4% paraformaldehyde (PFA) for 30 s, washed with PBS three times, and stained for 1 h with Naphthol AS-MX phosphate (Sigma-Aldrich, St. Louis, Mo.) and Fast Blue BB salt (Sigma-Aldrich) in 0.1M Tris-HCl at pH 8.2, followed by washing with PBS.

[5] = Critical micelle concentration by Nile red fluorescent probe assay; format: physicochemical; conditions: pH 7.4, Nile red
Description: To assess PA nanofiber stability, we measured the critical micelle concentration (CMC) of PAs by Nile red fluorescent probe assay (Boekhoven, A. M. Brizard, P. van Rijn, M. C. A. Stuart, R. Eelkema, J. H. van Esch, Angewandte Chemie (International ed in English) 2011, 50, 12285; herein incorporated by reference in its entirety). At pH 7.4, the supramolecular assembly of the BMP-2-binding PA was detected at above 666 nM (1.5 μg/mL), and that of the diluent PA was detected at above 1 μM (1.2 μg/mL) (FIG. 3). The binding affinities of the PAs to BMP-2 were investigated by surface plasmon resonance (SPR) using hexahistidine-tagged BMP-2 (His-BMP-2) that was immobilized on the surface via nickel (II)-nitrilotriacetic acid (Ni^2+-NTA) chelation (Knecht, D. Ricklin, A. N. Eberle, B. Ernst, J. Mol. Recognit. 2009, 22, 270; herein incorporated by reference in its entirety). As a control, the BMP-2-binding PA (1 μm, pH 7.4) was injected to a bare NTA-dextran chip, and we observed non-specific binding of the PA to the surface (FIG. 4). […]
Critical micelle concentration measurements were performed using Nile Red fluorescence spectroscopy. […] These samples were vortexed, sonicated, and were allowed to equilibrate for 24 hours before fluorescence spectra were obtained. For pH 8.5, PA samples were horn sonicated prior to the addition of Nile Red, and fluorescence spectra were obtained the same day.

## heparin sodium [reference compound]
C2C12 cells [1]
  ALP expression without BMP-2: did not promote ALP expression
C2C12 cells [2]
  osteoblastic differentiation by mRNA levels relative to BMP-2 alone: enhanced osteoblastic differentiation
C2C12 cells [3]
  cytotoxicity: did not induce cytotoxicity
C2C12 cells [4]
  number of ALP-positive cells: directly proportional association of the number of ALP-positive cells with heparin concentrations up to 10 μg/mL

## CCCCCCCCCCCC(=O)NCCCC[C@H](NC(=O)[C@@H](NC(=O)[C@@H](NC(=O)[C@@H](NC(=O)[C@H](C)NC(=O)[C@H](C)NC(=O)[C@H](C)NC(=O)[C@H](CCC(=O)O)NC(=O)[C@H](CCC(=O)O)NC(=O)[C@H](CCC(=O)O)NC(=O)[C@H](CO)NC(=O)CNC(=O)CNC(=O)CNC(=O)[C@H](Cc1ccc(O)cc1)NC(=O)[C@@H]1CCCN1C(=O)[C@@H](NC(=O)[C@H](Cc1c[nH]cn1)NC(=O)[C@@H]1CCCN1C(=O)[C@H](CO)NC(=O)[C@@H](N)[C@@H](C)O)C(C)C)C(C)C)C(C)C)C(C)C)C(N)=O [BMP-2-binding PA, C12-(K)V3A3E3-SGGGYPVHPST-NH2] (H-TSPHVPYGGGSEEEAAAVVVK(Lauroyl)-NH2; N-terminus and C-terminus assumed)
C2C12 cells [2]
  osteoblastic differentiation by mRNA levels relative to BMP-2 alone: enhanced osteoblastic differentiation
C2C12 cells [3]
  cytotoxicity: did not induce cytotoxicity
C2C12 cells [4]
  number of ALP-positive cells: slight increase in the number of ALP-positive cells
[5]
  critical micelle concentration (supramolecular assembly detected at above): above 666 nM and > 1.5 μg/mL

## CCCCCCCCCCCCCCCC(=O)N[C@H](C(=O)N[C@H](C(=O)N[C@H](C(=O)N[C@@H](C)C(=O)N[C@@H](C)C(=O)N[C@@H](C)C(=O)N[C@@H](CCC(=O)O)C(=O)N[C@@H](CCC(=O)O)C(=O)N[C@@H](CCC(=O)O)C(=O)O)C(C)C)C(C)C)C(C)C [diluent PA, C16-V3A3E3-COOH] (HELM PEPTIDE1{[CCCCCCCCCCCCCCCC(=O)[*:2]].V.V.V.A.A.A.E.E.E}$$$$V2.0)
C2C12 cells [2]
  osteoblastic differentiation by mRNA levels relative to BMP-2 alone: enhanced osteoblastic differentiation
C2C12 cells [3]
  cytotoxicity: did not induce cytotoxicity
C2C12 cells [4]
  number of ALP-positive cells: increased number of ALP-positive cells
[5]
  critical micelle concentration (supramolecular assembly detected at above): above 1 μM and > 1.2 μg/mL
